For data set [1], the system named is PEDV. The experiment in a line: Transmission electron microscopy of peptide-treated virus. Also on record: species or system Porcine epidemic diarrhea virus. To be noted: PEDV treated with 10 µM peptide, negative stain, Fig. 9; for effect on virus morphology / membrane (TEM): one minute at 37 °C. The method, then: PEDV was treated with CATH-B1, LL-37, PMAP-23, and PMAP-36 for one minute at 37 °C. Subsequently, 10 µL of the sample was placed onto a freshly carbon-coated copper grid. The grids were washed 3 times with PBS and then fixed with 1% glutaraldehyde (Sigma-Aldrich, St. Louis, MO, USA) in PBS for 10 min. Following this fixation, the grids were rinsed 2 times with PBS and 4 times with MilliQ water. They were stained for 5 min in Uranyl Acetate (pH 7) then briefly washed with methylcellulose/uranyl acetate (pH 4) and incubated for 5 min on ice. Finally, the grids were looped out of the solution and air-dried. The samples were subsequently examined in a JEM1010 (JEOL) equipped with a Veleta 2k × 2k CCD camera (EMSIS, Munster, Germany).
Fig. 9 The effect of AMPs on the morphology of the virus. PEDV (MOI=0.3), which was pre-incubated with peptides. TEM images were taken of PEDV alone (A–D), PEDV treated with 10 µM LL-37 (E-H), PEDV treated with 10 µM CATH-B1 (I-L), PEDV treated with 10 µM PMAP-23 (M, N), and PEDV treated with 10 µM PMAP-36 (O, P). […] Micrographs were captured with a pixel size of 0,5 nm and analyzed visually using ImageJ. The micrographs are representative of observations from three independent experiments. Scale bars represent 100 nm.

Data set [2] concerns PEDV-GFP. The experiment in a line: Co-incubation antiviral assay of the extended AMP panel and of FL LL-37. It is filed as cell-based, Porcine epidemic diarrhea virus. To be noted: FC; for prevention of PEDV-GFP entry into Vero cells, extended AMP panel, in words: co-incubation with PEDV-GFP, 1 and 5 µM, 3 h, two independent experiments in duplicate, Fig. 5. The method, then: (§1) In order to determine the effect of AMPs on the infectivity of PEDV, Vero cells (5 × 10^5 per well) were seeded in 12-well plates and cultured overnight at 37 °C, 5% CO2. In a co-incubation of virus and AMPs experiments (Fig. 2A), the mixture of AMPs (0–10 µM) and PEDV-GFP (MOI= 0.3) in a 1 mL volume of DMEM (P/S + 10% FCS) was added to the cells and incubated at 37 °C. After 2 h, the supernatant was replaced with fresh DMEM (P/S + 10% FCS) and incubated for 24 h. Subsequently, the cells were washed 2 times with flow cytometry buffer (500 mL PBS+ 10 mL FCS+ 250 µL of 10% NaN3) and were imaged with an EVOS M5000 Imaging System for semi-quantitative determination of infectivity. Eventually, cells were carefully detached by 2.5% trypsin, stained with ViaKrome 808 fixable viability dye (1:1000), and incubated for 30 min at 4 °C. Following washing, the cells were fixed using 50 µL of 4% PFA for 10 min, and a minimum of 1 × 10^5 cells were acquired using the CytoFLEX LX Flow Cytometer (FC)(Beckman Coulter, USA). Data was analyzed using FlowJo software v.10.6 (Flowjo LCC, Ashland, OR, USA).
This extended panel of AMPs encompassed chicken-derived peptides (D-CATH-2, l-CATH-2), mouse-derived peptide (CRAMP), horse-derived peptides (eCATH-1, eCATH-3), parrot-derived peptides (ER2, ER3, AG3), and synthetic peptides (CR165, CR174), all of which were readily accessible within our laboratory. As previously described, these AMPs were co-incubated with PEDV.
Fig. 5 Antiviral effects of a diverse group of AMPs on PEDV infection. Vero cells were incubated for 3 h with a combination of PEDV-GFP and AMPs, as described previously. FC was utilized to assess the inhibitory impact of AMPs.
Figure S4. The antiviral activity of FL LL-37 (fluorogenic LL-37 ) and unlabeled LL-37. Peptides were co-incubated at 1 and 5 µM with PEDV and added to Vero cells for 3 h, followed by FC analysis to examine the infectivity.

Data set [3] relates to PEDV-GFP. Description: Co-incubation antiviral assay, PEDV-GFP MOI=0.3, Vero cells (fluorescence microscopy and flow cytometry). It is filed as cell-based, Porcine epidemic diarrhea virus. The method, then:
as §1
Fig. 2 Effect of AMPs on the infectivity of PEDV (MOI=0.3). A) Experimental set-up of the ‘co-incubation assay’; Vero cells were subjected to 2 h exposure to a combination of AMPs and PEDV-GFP. Afterward, the supernatant was replaced, and the cells were incubated for an additional 24 h B) Fluorescent microscopy (20 × magnification) was performed to visualize the fluorescence signal of GFP in the presence of 1, 5, and 10 µM AMPs. The cell-only sample consists exclusively of cells while the no-peptide sample contains only PEDV-GFP, with no peptides present.
Fig. 3 Antiviral activity of AMPs as determined by flow cytometry (FC). A) The percentage of GFP-positive cells following a 2 h incubation with a combination of PEDV and AMPs. […] The values reported here depict the average ± SD derived from three independent experiments performed in duplicate. * p < 0.05; ** p < 0.01.

Data set [4] relates to PEDV. Description: Peptide-virus interaction assay with Capto Core 700 beads. In kind it is cell-based, Porcine epidemic diarrhea virus. To be noted: Fig. 8. As for the experimental part:
In order to determine if CATH-B1 and LL-37 physically interact with PEDV, Capto Core 700 beads (GE Healthcare Life Sciences, Chicago, IL, USA) were used to selectively eliminate unbound AMPs. PEDV were pre-incubated with or without CATH-B1/LL-37 in Opti-MEM medium, and Capto Core 700 beads were added, followed by a 1 h incubation at 4 °C while slowly rotating. After centrifugation, supernatants were collected and applied to the cells. To make sure the AMP was removed effectively, we tested samples with peptides but no virus using the same process. The collected supernatants were used to inoculate cells, and the number of infected cells was determined using the described method.
Fig. 8 Interactions between CATH-B1 and LL-37 with PEDV. CATH-B1/LL-37 were pre-incubated with the virus, and subsequently, the peptide and virus were separated using Capto Core beads. The supernatant containing the separated virus was then employed to infect Vero cells. […] The data is presented as the mean ± SEM of three independent experiments in duplicate, each with triplicate samples. **** p < 0.0001.

Data set [5] concerns PEDV. The experiment in a line: Co-incubation antiviral assay, PEDV MOI=1, Vero cells. It is filed as cell-based, Porcine epidemic diarrhea virus. To be noted: PEDV MOI=1, co-incubation, Vero cells, FC; Fig. 4B. The method, then:
as §1
Fig. 4 The inhibitory effect of AMPs on PEDV at MOI=1. A) Fluorescence microscopy image was captured at 20 × magnification to visualize the GFP fluorescence signal in Vero cells following co-incubation of AMPs and PEDV at MOI=1. B) The percentage of GFP-positive cells was determined by FC after 3 h co-incubation of PEDV and AMPs. C) The fluorescence intensity of GFP across three different concentrations of LL-37 was illustrated through the FC histogram. […] The reported values in 4A represent the mean ± SD of three independent experiments performed in duplicate **** p < 0.0001.

Data set [6] deals with PEDV-GFP. Description: Pre-incubation (pre-treatment) antiviral assay. It is filed as cell-based, Porcine epidemic diarrhea virus. To be noted: Vero cells treated 3 h with AMPs (0-10 µM), washed, then infected with PEDV-GFP MOI 0.3 for 2 h; FC; Fig. 6B, C. As for the experimental part:
The effect of AMPs on viral infectivity was also determined when they were added to Vero-cells before (pre-treatment) or after (post-treatment) infection. In the pre-treatment assay (Fig. 6A), Vero cells were treated with different concentrations of CATH-B1 and LL-37 peptides (ranging from 0 to 10 µM) for various durations (1, 2, 3, 4, and 24 h) at 37 °C. Subsequently, the cells were washed 2 times with PBS and infected with PEDV-GFP at an MOI of 0.3 for 2 h
In post-incubation assays (Fig. 7A), cells were initially exposed to the virus for 2 h, washed 2times with PBS and subsequently treated with AMPs for 3 h Both for pre- and post-infection assays, after the respective incubation periods, the cells were assessed using fluorescence microscopy and quantified using FC as described above.
Fig. 6 Effects of AMPs in pre-incubation assay. A) Experimental set-up of pre-incubation experiment. B) FC was employed to quantify the percentage of GFP-positive cells during pre-incubation. […] The reported values represent the mean ± SD derived from three independent experiments performed in triplicate. * p < 0.05; ** p < 0.01.

Data set [7] relates to Vero cells.
Method: To investigate the cellular localization of LL-37, Fluorogenic (FL) LL-37 was incubated with Vero cells for 3 h The cells were then washed with PBS and further incubated for 24 h at 37 °C. FC analysis was conducted to evaluate the amount of labeled LL-37 adhered or internalized within the cell, as described earlier (using unlabeled LL-37 as control). Additionally, to assess LL-37 uptake in Vero cells, the cells were incubated with FL LL-37 at concentrations of 1 and 5 µM for 30 min, 60 min, and 180 min, followed by PBS washes. After incubation, the cells were fixed with 4% PFA for 30 min at RT. After two PBS washes, DAPI (Thermo Fisher Scientific, Waltham, MA, USA) diluted in PBS (1:1000) was added for 5 min to stain the nuclei. The live cells were then imaged using a Leica TCS SP2 confocal microscope with a 63 × objective. To examine the uptake mechanism, Vero cells were first incubated at 4 °C for 30 min to inhibit energy-dependent pathways before adding FL LL-37. Subsequently, the cells were incubated with the peptide at 4 °C for 30, 60, and 180 min. FC analysis was performed to quantify the amount of FL LL-37 adhered to or internalized by the cells.
A) Following a 3 h incubation with Vero cells and subsequent washing, the cellular entry of FL LL-37 and unlabeled LL-37 was examined using FC. Two concentrations of LL-37 were employed for this investigation. B) After treating the cells with 1 and 5 µM FL LL-37 for 30 min, 1 h, and 3 h, the cells were washed, and DAPI staining was applied before imaging using confocal microscopy. […] The image was acquired at a magnification of 63x. The sample designated as 'cells only' comprises only cells, with an absence of peptides and viruses. In contrast, the 'no peptide' sample is characterized by the presence of only the virus.
Cellular uptake of fluorescein-labeled LL-37 (1 μM and 5 μM) in Vero cells was assessed after incubation for A) 30 min, B) 60 min, and C) 180 min, using a temperature-controlled assay at both 37 °C and 4 °C. Untreated cells (cells only) were used as the control.

Here are results for seven substances from PMC11607671, “Antiviral activity of cathelicidins against porcine epidemic diarrhea virus (PEDV): Mechanisms, and efficacy” (Virus Research, 2024).

In the case of “GRFRRLRKKTRKRLKKIGKVLKWIPPIVGSIPLGCG [PMAP-36, porcine cathelicidin, 36 residues]”, the “effect on virus morphology / membrane (TEM)” value in data set [1] is “structure remained unchanged”.

Consider “ISRLAGLLRKGGEKIGEKLKKIGQKIKNFFQKLVPQPE [CRAMP, mouse-derived peptide, 38 residues]”, for which the “prevention of PEDV-GFP entry into Vero cells, extended AMP panel, in words” value (“prevention” for short) in data set [2] is reported as “failed to neutralize PEDV”.

Regarding “PIRNWWIRIWEWLNGIRKRLRQRSPFYVRG HLNVTSTPQP (PIRNWWIRIWEWLNGIRKRLRQRSPFYVRGHLNVTSTPQP) [CATH-B1, chicken cathelicidin, 40 residues]”, the “percentage of GFP-positive cells (FC), co-incubation” value in data set [3] (10 µM peptide, PEDV-GFP MOI=0.3, 2 h co-incubation then 24 h, no-peptide control approximately 35%, three independent experiments in duplicate, Fig. 3A) was 1–2%. In data set [3] (PEDV-GFP MOI=0.3, 5 and 10 µM peptide, 2 h co-incubation then 24 h, compared to control without peptide, Fig. 2B), the “infected cells by fluorescent microscopy, co-incubation” value is on record as “reduced numbers of infected cells”. In addition, in data set [4] (Capto Core 700 beads, Vero cells), the “virus infectivity, peptide pre-incubated with beads before PEDV introduction” value is listed as “minimal effects on virus infectivity”. For the same substance, in data set [4] (no Capto Core 700 beads, Vero cells), the “virus infectivity, peptide incubated with PEDV without beads” value is listed as “a decrease in virus infectivity”. Also, in data set [4] (peptide + PEDV, then Capto Core 700 beads 1 h at 4 °C, supernatant applied to Vero cells), the “antiviral activity when peptide is combined with virus and beads” value was “remained unchanged”. Further, the “antiviral effect at MOI=1, in words” value in data set [5] is “diminished as the MOI increased”. Further, in data set [1], the “virus aggregation (TEM)” value is on record as “extensive virus aggregation” and the “effect on virus morphology / membrane (TEM)” value is listed as “significant membrane damage”. Also, the “antiviral activity in pre-incubation assay, in words” value in data set [6] is given as “strong activity only at 10 μM”.

On to “RIIDLLWRVRRPQKPKFVTVWVR [PMAP-23, porcine cathelicidin, 23 residues]”, for which the “effect on virus morphology / membrane (TEM)” value in data set [1] is listed as “structure remained unchanged”.

As for “RRWVQRWIRRWRKVAAARRWVQRWIRRWRPKV [CR-174, non-naturally occurring synthetic (designed) AMP]”, the “prevention” value in data set [2] is “unsuccessful in significantly preventing PEDV-GFP entry”.

On to “RRWVQRWIRWVQRWVR [CR-165, non-naturally occurring synthetic (designed) AMP]”, for which the “prevention” value in data set [2] was “unsuccessful in significantly preventing PEDV-GFP entry”.

In the case of “Tamra-(ahx)-LLGDFFRKSKEKIGKEFKRIVQRIKDFLRNLVPRTES [FL LL-37, Tamra-(ahx)-labelled LL-37]”, the “cellular localization (confocal microscopy)” value in data set [7] (1 and 5 µM, 1 and 3 h incubation, Vero cells, fixed, DAPI, Fig. 10B) is “predominant intracellular localization”. Moreover, the “uptake or attachment to Vero cells (FC)” value in data set [7] (3 h incubation with Vero cells, washing, FC fluorescence, two concentrations, unlabeled LL-37 as negative control, Fig. 10A) was “substantial concentration-dependent uptake or attachment”. Besides, in data set [7] (Vero cells at 4 °C versus 37 °C, 1 and 5 µM, 30, 60, 180 min, Fig. S5), the “uptake at 4 °C (FC)” value is reported as “significant reduction in the uptake”. Further, the “effect of fluorogenic labelling on antiviral activity” value in data set [2] (1 and 5 µM co-incubated with PEDV, Vero cells 3 h, compared with unlabeled LL-37, Fig. S4) is on record as “no effect on the antiviral activity”.
